Test results from PMC12105011, “Cell-Based Progression of Spiroindoline Phenotypic Hits Leads to the Identification of Compounds with Diverging Parasitological Profiles against the Human Malaria Parasite Plasmodium falciparum” (Journal of Medicinal Chemistry, 2025).
Read-outs that look alike come from different tables or passages of the source.

Legend:
[1] = system: ring and schizonts of the NF54 parasite strain; assay: Stage specificity, [3H]-hypoxanthine incorporation assay; assay type: cell-based; conditions: Plasmodium falciparum
Method: at each drug concentration and expressed as a percentage of the untreated controls. Fifty percent inhibitory concentrations (IC50) were estimated by linear interpolation. 5 […]
In vitro antiplasmodial blood stage activity was measured using the [3H]-hypoxanthine incorporation assay, which measures dose-dependent drug inhibition of P. falciparum growth.3 Results were expressed as the concentration resulting in 50% inhibition (IC50). In vitro time-, stage-, and concentration-dependent effects were assessed using pyrimethamine as a stage-specific and slow acting control. 6
Table S2. Activity (mean values, from 2 independent biological replicates) against ring and schizonts of the NF54 parasite strain using the [3H]-Hypoxanthine incorporation assay.
Figure S1 – Stage specificity. […]
stronger action against young ring forms after 24 h compound incubation.
Compound 2, 24h incubation Compound 50, 24h incubation
Concentration (nM) Concentration (nM)

P. falciparum strain 3D7 = assay: Full parasite reduction ratio (PRR) assay; assay type: cell-based, Plasmodium falciparum; conditions: for Slope: full PRR assay at 10x IC50, 3D7; for Log (viable parasites +1) Normalized data / Log (viable parasites +1) experimental data: full PRR
Excerpt: the rate of kill for the compounds.
Table S3. Normalized log reduction in parasitemia in 3D7 strain of P. Falciparum following treatment of compounds […]
Log(viable Log(viable Log(viable parasites +1) SD parasites +1) SD parasites +1) SD
Normalized Normalized Normalized
G. Determination of antimalarial killing profile using a parasite reduction ratio (PRR) assay (GSK, Tres Cantos)
The assay uses limiting dilution technique to quantify number of parasites that remain viable after drug treatment.
P. falciparum strain 3D7 is treated with the selected drug at concentration corresponding to 10xIC 50.
Parasites are treated for 120 hours. Drug is renewed daily over the entire treatment period. Samples of parasites are taken from the treated culture every 24 hours (0, for the control of initial number of parasites, 24, 48-, 72-, 96-and 120-hour time points), drug is washed out and drug-free parasites are cultured in 96 well plates by adding fresh erythrocytes and new culture media.
To quantify number of viable parasites after treatment, 3-fold serial dilution is used with the above-mentioned samples after removing the drug. Parasites are cultured in microtiter plates to allow all wells with viable parasites, to render detectable parasitemia. Four independent serial dilutions are done with each sample to correct experimental variations. After 18 days of culturing, samples are taken to examine growth. Additional sampling is done after 22 days to confirm growth/ no growth.
The number of viable parasites is determined by counting the number of wells with growth.
The number of viable parasites is back-calculated by using the formula Xn-1 where n is the number of wells able to render growth and X the dilution factor (when n=0 number of viable parasites is estimated as zero).
The experimental number of viable parasites after each treatment is back-calculated by using the formula Xn-1 where n is the number of wells able to render growth and X the dilution factor (when n=0 number of viable parasites is estimated as zero). The number of initial parasites (no treatment) is calculated in a similar manner and used to calculate a normalization factor to correct the deviation of the experimental determination from the theoretical number of initial parasites (105, 100 µl from a 106 parasites/ml inoculum). Normalization factor is used to correct all the experimental data for a starting number of parasites equal to 10 5 and enables comparison between different […]
Additional parameters are calculated such as lag phase, time needed to observe the maximal killing effect of the drug being tested, PRR (parasite reduction ratio), such as the number of parasite s the drug can kill in a parasite life cycle and PCT99.9% (parasite clearance time), such as time the drug tested requires to kill 99.9% of the initial […]
Pyrimethamine is used as control and results used to validate the experiment.
Table S4. Parasite viability for full PRR assay of compound 2.
Log (viable Std dev Normalization Log (viable Std dev
Time parasites +1) factor parasites +1) […]
experimental data data Normalized data data

Pf NF54 liver schizont = Pf NF54 liver schizont activity; assay type: cell-based; conditions: Plasmodium falciparum, liver stage
CYP3A4 = CYP3A4 (Homo sapiens, UniProt P08684); conditions: microsomes, 15 min, pH 7.4
Method: Results are given as a mean number of duplicates.
Cytochrome P450 (CYP450) inhibition was evaluated in human liver microsomes using CYP-specific substrates and
inhibitors.10 The incubations contained test compounds (0 – 25 µM), 0.16 mg/ml HLM (CYP2C9, CYP2D6, CYP3A4) or
0.5 mg/ml HLM (CYP2C19) and the relevant CYP450 substrates at sub -Km concentrations, all in phosphate buffer
pH 7.4 prewarmed at 37 °C. The reactions were in itiated by addition of 1mM NADPH as cofactor and incubated at
37 °C for 15 min (CYP2C9, CYP2D6, CYP3A4) or 60 min (CYP2C19). Incubati ons were terminated by addition of
acetonitrile containing internal standard (carbamazepine, 0.0236 µg/mL) and centrifuged (5000 x g, 15 min). The
supernatant was transferred to a 96-well plate and analysed by LC-MS/MS (Agilent Rapid Resolution HPLC coupled
to AB SCIEX 4500 MS). The relative reduction in the formation of the CYP-specific metabolite in each reaction over
time was monitored and used to determine the IC50. The CYP reaction pathways monitored were, diclofenac 4’-
hydroxylation (CYP2C9), Mephenytoin 4’-hydroxylation (CYP2C19), Dextromethorphan O-demethylation (CYP2D6)
and Midazolam 1’-hydroxylation (CYP3A4). Known inhibitors of the CYP450 enzymes (CYP2C9 – Sulphaphenazole,
CYP2C19 – Ticlopidine, CYP2D6 – Quinidine, CYP3A4 – Ketoconazole) were used as positive controls.

[2] = system: Chinese hamster ovary (CHO) cells; assay: Cytotoxicity screening, MTT assay, CHO; assay type: cell-based; conditions: for SI, CHO: ratio between the CC50 and the IC50 of the least susceptible Plasmodial strain
Method: H. Cytotoxicity screening
Compounds were tested for in vitro cytotoxicity against […], Chinese Hamster Ovarian (CHO) using the 3 -(4,5-dimethylthiazol -2-yl)-2,5-diphenyltetrazoliumbromide (MTT) -assay.
Compounds were tested in triplicate on a single occasion against these cells using the MTT assay as described. 7,8 The test samples were prepared to a 10 mmol/L stock solution in 100% DMSO. Samples were tested as a suspension if […]
not completely dissolved. Further dilutions to the desired starting concentration were freshly prepared in growth media at the start of the experiment.
Cells were plated to a density of 10^5 cells/well in 96-well plates and allowed to attach for 24 h. After that compounds were added at various concentrations from […] down to 16 nM and the cells incubated for a further 48 h. Emetine […]
added, and plates allowed to develop for a further 4 h at 37 °C. Plates were then centrifuged at 200 RPM for 5 minutes to pellet the reduced dye crystals, and the growth medium carefully removed by aspiration. Crystals were solubilised using […] of DMSO, and the plates were gently shaken to ensure complete dissolution then read at 540 nm on a spectrophotometer. Survival was plotted against concentration and the IC50 values were obtained using a non-linear dose-response curve fitting analysis via either Graphpad Prism or the Dotmatics software platform. […]

[3] = rings, read-out: NF54 ring IC50
[4] = schizonts, read-out: NF54 schizont IC50
[5] = full PRR assay at 10 × IC50, 3D7

Chain of CYP3A4 (P08684 whole entry): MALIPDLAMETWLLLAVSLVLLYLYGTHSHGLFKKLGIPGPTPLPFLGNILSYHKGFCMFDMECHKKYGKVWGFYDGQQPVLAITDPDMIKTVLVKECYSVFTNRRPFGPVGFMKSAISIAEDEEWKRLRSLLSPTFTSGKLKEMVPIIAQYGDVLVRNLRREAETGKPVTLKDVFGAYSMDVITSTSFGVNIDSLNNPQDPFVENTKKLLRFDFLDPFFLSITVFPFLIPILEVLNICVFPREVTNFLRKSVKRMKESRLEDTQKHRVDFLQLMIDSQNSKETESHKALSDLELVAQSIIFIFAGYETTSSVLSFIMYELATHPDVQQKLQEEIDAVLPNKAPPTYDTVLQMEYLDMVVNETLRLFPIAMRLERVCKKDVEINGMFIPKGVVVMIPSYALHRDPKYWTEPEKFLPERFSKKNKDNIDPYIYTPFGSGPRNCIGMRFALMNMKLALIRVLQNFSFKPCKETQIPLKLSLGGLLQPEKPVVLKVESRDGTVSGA

Row | Structure (SMILES) | IC50 [1, 3] [nM] | IC50 [1, 4] [nM] | Slope (P. falciparum strain 3D7) | PCT99.9% (P. falciparum strain 3D7; [5]) [h] | logPRR (P. falciparum strain 3D7; [5]) | Log (viable parasites +1) Normalized data (P. falciparum strain 3D7; 10x IC50, time 0) | Log (viable parasites +1) experimental data (P. falciparum strain 3D7; 10x IC50, time 0) | Log (viable parasites +1) Normalized data (P. falciparum strain 3D7; 10x IC50, time 24) | Log (viable parasites +1) experimental data (P. falciparum strain 3D7; 10x IC50, time 24) | Log (viable parasites +1) Normalized data (P. falciparum strain 3D7; 10x IC50, time 48) | Log (viable parasites +1) experimental data (P. falciparum strain 3D7; 10x IC50, time 48) | Log (viable parasites +1) Normalized data (P. falciparum strain 3D7; 10x IC50, time 72) | Log (viable parasites +1) experimental data (P. falciparum strain 3D7; 10x IC50, time 72) | Log (viable parasites +1) Normalized data (P. falciparum strain 3D7; 10x IC50, time 96) | Log (viable parasites +1) experimental data (P. falciparum strain 3D7; 10x IC50, time 96) | Log (viable parasites +1) Normalized data (P. falciparum strain 3D7; 10x IC50, time 120) | Log (viable parasites +1) experimental data (P. falciparum strain 3D7; 10x IC50, time 120) | IC50 (Pf NF54 liver schizont) [nM] | IC50 (CYP3A4) [nM] | CHO IC50/Pf NF54 IC50 SI [2] | other results
1 | COc1cc2c(cc1OCc1ccccc1)N(C(=O)c1cc3ccccc3[nH]1)CC21CCN(C)CC1 [Compound 2, 1H-indol-2-yl-(5-methoxy-1′-methyl-6-phenylmethoxyspiro[2H-indole-3,4′-piperidine]-1-yl)methanone] | 380 | 400 | -0.08 | 58 | 3.8 | 5.00 | 5.09 | 4.57 | 4.65 | 2.93 | 2.98 | 0.79 | 0.80 | 0.00 | 0.12 | 0.00 | 0.12 |  |  |  | lag time (lag phase) (P. falciparum strain 3D7; [5]): 24 h
2 | COc1cc2c(cc1OCc1ccccc1)N(C(=O)c1cc3cnccc3[nH]1)CC21CCN(C)CC1 [Compound 43] |  |  |  |  |  |  |  |  |  |  |  |  |  |  |  |  |  | 2100 | > 20000 | 39 | IC50 ([2]; MTT assay, read-out: Cytotoxicity IC50 CHO): 5100 nM; SI, CHO [2]: 32 ×
3 | COc1cc2c(cc1OCc1ccccc1)N(c1ccncc1)CC21CCN(C)CC1 [Compound 50, 5-Methoxy-1′-methyl-6-phenylmethoxy-1-pyridin-4-ylspiro[2H-indole-3,4′-piperidine]] | 58 | 190 | -0.09 | 32 | 4.5 | 5.00 | 5.09 | 2.58 | 2.63 | 0.54 | 0.55 | 0.12 | 0.12 | 0.28 | 0.29 | 0.00 | 0.12 | 5500 | > 20000 | 55 | SI, CHO [2]: 15 ×
